Target: T1, human APJ receptor (Homo sapiens, UniProt P35414)
T1 construct: expressed in transfected cells; host or cells: HEK293
T1 sequence (P35414 1-380): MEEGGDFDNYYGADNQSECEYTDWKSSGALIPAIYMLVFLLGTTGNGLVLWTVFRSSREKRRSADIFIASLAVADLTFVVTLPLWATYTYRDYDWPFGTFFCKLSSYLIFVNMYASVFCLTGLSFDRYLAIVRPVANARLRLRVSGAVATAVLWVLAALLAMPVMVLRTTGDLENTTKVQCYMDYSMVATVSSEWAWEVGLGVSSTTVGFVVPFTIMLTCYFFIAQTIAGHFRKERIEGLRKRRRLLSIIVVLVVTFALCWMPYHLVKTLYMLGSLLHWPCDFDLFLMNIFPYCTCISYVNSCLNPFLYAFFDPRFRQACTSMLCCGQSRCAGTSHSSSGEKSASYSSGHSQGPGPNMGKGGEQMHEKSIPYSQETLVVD
Assay: Intracellular cAMP accumulation assay (APJ hcAMP, HTRF)
Format: cell-based
Details: HEK293 cells stably expressing human APJ receptor; inhibition of forskolin-mediated cAMP production; Table 1; read-out: hAPJ cAMP EC50 Potency range
Procedure, shortened: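 Inhibition of forskolin (2 μM)-driven cAMP, with […], measured by HTRF after 30 min room-temperature compound exposure of stably transfected HEK293 cells. cAMP read from a standard curve; variable-slope fit gives EC50, and maximal inhibition is normalised to (Pyr1)apelin-13 as 100%.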

Structure (SMILES)	EC50
CCN(c1ccccc1)c1c(-c2cccc(C)c2)nc(O)c(S(=O)(=O)c2ccc(-c3ccccc3C(N)=O)cc2)c1O [Example 144, 4′-((5-(ethyl(phenyl)amino)-2,4-dihydroxy-6-(m-tolyl)pyridin-3-yl)sulfonyl)-[1,1′-biphenyl]-2-carboxamide]	0.01 to 10 nM
CCCCc1nc(O)c(S(=O)(=O)c2ccc(-c3ccc(F)nc3C)cc2)c(O)c1N(c1ccccc1)C(C)C [Example 026, 6-butyl-3-((4-(6-fluoro-2-methylpyridin-3-yl)phenyl)sulfonyl)-5-(isopropyl(phenyl)amino)pyridine-2,4-diol]	0.01 to 10 nM
CCN(c1ccccc1)c1c(-c2cnc(C)s2)nc(O)c(S(=O)(=O)c2ccc(-c3ccccc3C(=O)NC3CC3)cc2)c1O [Example 189, N-cyclopropyl-4′-((5-(ethyl(phenyl)amino)-2,4-dihydroxy-6-(2-methylthiazol-5-yl)pyridin-3-yl)sulfonyl)-[1,1′-biphenyl]-2-carboxamide]	0.01 to 10 nM
